Reference: ChEMBL document CHEMBL4342480, “Design of Dual Inhibitors of Soluble Epoxide Hydrolase and LTA4 Hydrolase” (ACS Med Chem Lett, 2020)

How the values were obtained:
Macrophage [1] = assay: Antiinflammatory activity in Escherichia coli O6:K2:H1-induced human M1 macrophage assessed as change in […] level at 10 uM preincubated for 10 mins followed by Escherichia coli O6:K2:H1-stimulation and measured after 180 mins by UPLC-MS/MS analysis relative to control; type: functional
Macrophage [2] = assay: Antiinflammatory activity in Escherichia coli O6:K2:H1-induced human M2 macrophage assessed as change in total LTB4 level at 1 uM preincubated for 10 mins followed by Escherichia coli O6:K2:H1-stimulation and measured after 180 mins by UPLC-MS/MS analysis relative to control; type: functional
Macrophage [3] = assay: Antiinflammatory activity in Escherichia coli O6:K2:H1-induced human M1 macrophage assessed as change in PGE2 level at 10 uM preincubated for 10 mins followed by Escherichia coli O6:K2:H1-stimulation and measured after 180 mins by UPLC-MS/MS analysis relative to control; type: functional
[4] = target: T1, Leukotriene A-4 hydrolase (Homo sapiens, UniProt P09960); assay: Inhibition of (His)6 tagged human recombinant LTA4H expressed in Escherichia coli BL21(DE3) using non-fluorescent L-arginine-7-amino-4-methylcoumarine as substrate preincubated for 30 mins followed by substrate addition and measured for 30 mins by fluorescence based assay
T1 sequence (P09960 whole entry): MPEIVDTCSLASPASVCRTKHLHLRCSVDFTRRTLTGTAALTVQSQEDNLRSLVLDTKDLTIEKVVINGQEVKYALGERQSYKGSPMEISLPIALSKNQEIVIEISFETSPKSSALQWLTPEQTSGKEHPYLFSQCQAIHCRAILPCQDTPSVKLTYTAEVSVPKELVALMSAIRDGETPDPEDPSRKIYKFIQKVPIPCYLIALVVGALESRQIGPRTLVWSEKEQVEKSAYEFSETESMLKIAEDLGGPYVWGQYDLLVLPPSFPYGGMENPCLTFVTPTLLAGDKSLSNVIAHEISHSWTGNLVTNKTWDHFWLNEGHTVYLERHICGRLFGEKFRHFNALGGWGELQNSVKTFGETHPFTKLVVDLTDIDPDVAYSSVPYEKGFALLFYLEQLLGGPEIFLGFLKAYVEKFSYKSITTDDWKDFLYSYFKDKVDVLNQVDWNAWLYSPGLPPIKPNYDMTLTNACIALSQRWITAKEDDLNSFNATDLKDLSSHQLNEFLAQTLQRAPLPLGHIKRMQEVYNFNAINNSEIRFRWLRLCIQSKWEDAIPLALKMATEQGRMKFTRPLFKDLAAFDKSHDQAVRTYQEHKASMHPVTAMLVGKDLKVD

Macrophage [5] = assay: Antiinflammatory activity in Escherichia coli O6:K2:H1-induced human M2 macrophage assessed as change in 4-HDHA level at 10 uM preincubated for 10 mins followed by Escherichia coli O6:K2:H1-stimulation and measured after 180 mins by UPLC-MS/MS analysis relative to control; type: functional
Macrophage [6] = assay: Antiinflammatory activity in Escherichia coli O6:K2:H1-induced human M1 macrophage assessed as change in PGF2alpha level at 10 uM preincubated for 10 mins followed by Escherichia coli O6:K2:H1-stimulation and measured after 180 mins by UPLC-MS/MS analysis relative to control; type: functional
Macrophage [7] = assay: Antiinflammatory activity in Escherichia coli O6:K2:H1-induced human M1 macrophage assessed as change in LTB4 level at 10 uM preincubated for 10 mins followed by Escherichia coli O6:K2:H1-stimulation and measured after 180 mins by UPLC-MS/MS analysis relative to control; type: functional

IC50 [4]: 200 nM
SMILES: O=C(Cc1ccc(Oc2nc3ccccc3s2)cc1F)NCCc1ccc(F)cc1
Activity (Macrophage [1]): 82% | Activity (Macrophage [2]): 83% | Activity (Macrophage [3]): 77% | Activity (Macrophage [5]): 78% | Activity (Macrophage [6]): 80% | Activity (Macrophage [7]): 11%
